Where a name gives a salt, the structure may show the parent alone.
Columns and labels:
SB.mhdgc-1 = assay: AC50 for growth inhibition (viability) (log10 M); higher = less potent; details: SB.mhdgc-1 (hereditary c.1380delA CDH1 gastric cancer)
In short: (§1)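 Dosing used a pintool to add 23 nL compound in DMSO to 1536 wells, each with 500 hereditary or sporadic patient-derived gastric cancer cells, across 11 threefold dilutions starting at a final 46 μM. Viability after 48 h was measured by CellTiter-Glo luminescence on a ViewLux. The log half-maximal activity concentration derives from a four-parameter fit of that viability normalised to DMSO, limited to high-quality curve classes.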

SB.msgc-1 = assay: as above; details: SB.msgc-1 (sporadic gastric cancer)
In short: as §1

Row | Compound | AC50 for growth inhibition (log10 M) (SB.mhdgc-1) | AC50 for growth inhibition (log10 M) (SB.msgc-1)
1 | Cc1c(N)nc([C@H](CC(N)=O)NC[C@@H](N)C(N)=O)nc1C(=O)N[C@H](C(=O)N[C@@H](C)[C@H](O)[C@@H](C)C(=O)N[C@@H](C(=O)NCCc1nc(-c2nc(C(=O)NCCC[S+](C)C)cs2)cs1)[C@@H](C)O)C(O[C@H]1O[C@H](CO)[C@H](O)[C@@H](O)[C@H]1O[C@H]1O[C@H](CO)[C@@H](O)[C@H](OC(N)=O)[C@@H]1O)c1c[nH]cn1 (stereo not given in full) [Bleomycin sulfate] | -5.88 | -5.43
2 | CC(C)C[C@H](NC(=O)[C@H](Cc1ccccc1)NC(=O)c1cnccn1)B(O)O [Bortezomib] | -7.78 | -7.98
3 | Cc1cc2c(F)c(Oc3ncnn4cc(OC[C@@H](C)O)c(C)c34)ccc2[nH]1 [Brivanib] | -4.98 | -4.73
4 | CCCCOc1ccc(CC(=O)NO)cc1 [Bufexamac] | -5.43 | -4.88
5 | COc1ccc([S+](=O)([O-])Nc2cc(-c3c(O)ccc4ccccc34)c(O)c3ccccc23)cc1 [C-188-9] | -4.73 | -4.73
6 | CCCNC(=O)[C@H]1O[C@@H]1C(=O)N[C@H](C(=O)N1CCC[C@H]1C(=O)OC)C(C)CC (stereo not given in full) [CA-074 Me] | -4.78 | -4.73
7 | O=C(NCc1ccccc1)[C@H](Cc1ccccc1)NC(=O)[C@H]1O[C@@H]1C(=O)NCCc1ccc(O)cc1 [CAA0225] | -6.48 | -6.08
8 | CC[C@H](NC1=C2N=C[NH]C2=NC=N1)C/3=N/C4=C(C(=CC=C4)F)C(=O)N3C5=CC=CC=C5 [CAL-101] | -5.18 | -5.43
9 | OCCNC1CCCc2c1[nH]c1ccc(-c3ccccc3)cc21 (stereo not given) [CASIN] | -4.73 | -4.63
10 | c1cc(OCCN2CCCCC2)cc(-c2n[nH]c3ccc(-c4nc[nH]n4)cc23)c1 [CC-401] | -4.78 | -4.78
11 | Cc1c(CCOc2ccc(C(=O)O)cc2)c2cc(Cl)ccc2n1C(c1ccccc1)c1ccccc1 [CDIBA] | -4.73 | -4.98
12 | CN1/C=C(\N=C(NC2=CC=C(C=C2)C(=O)N3CCOCC3)/C1=O)/C4=C(C)C(=CC=C4)NC(=O)C5=CC=C(C=C5)C(C)(C)C [CGI-1746] | -4.63 | -5.23
13 | ClC1=CC\2=C(NC(=O)\C(=C2N[C@@H]3CN4CCC3CC4)C5=NC6=C([NH]5)C=CC=C6)C=C1 [CHIR-124] | -6.08 | -6.53
14 | CC(C)n1cnc2c(NCCCCCCNC(=O)OC(C)(C)C)nc(NCCO)nc21 [CK59] | -4.93 | -5.23
15 | COc1c(C)cnc(Cn2cnc3c(Cl)nc(N)nc32)c1C [CNF-2024] | -6.33 | -7.18
16 | C#Cc1cccc(Nc2ncnc3cc(OC)c(OCCCCCCC(=O)NO)cc23)c1 [CUDC-101] | -8.28 | -7.53
17 | COc1ccc(-c2nc(N3CCOCC3)c3sc(CN(C)c4ncc(C(=O)NO)cn4)cc3n2)cn1 [CUDC-907] | -6.28 | -7.83
18 | N#CCNC(=O)c1ccc(-c2ccnc(Nc3ccc(N4CCOCC4)cc3)n2)cc1 [CYT387] | -4.78 | -4.73
19 | COc1cc2nccc(Oc3ccc(NC(=O)C4(C(=O)Nc5ccc(F)cc5)CC4)cc3)c2cc1OC [Cabozantinib] | -6.33 | -5.48
20 | C=C1/C(=C\C=C2/CCC[C@]3(C)[C@@H]([C@H](C)CCCC(C)(C)O)CC[C@@H]23)C[C@@H](O)C[C@@H]1O [Calcitriol] | -6.53 | -5.63
21 | CC[C@@]1(O)C(=O)OC\C2=C1\C=C\3N(CC4=C3N=C5C=CC=CC5=C4)C2=O [Camptothecin] | -7.93 | -7.43
22 | C=CC(=O)Nc1cc2c(Nc3ccc(F)c(Cl)c3)ncnc2cc1OCCCN1CCOCC1 [Canertinib] | -4.73 | -5.18
23 | C[C@@]12C(=O)OC(=O)[C@@]1(C)C1CCC2O1 [Cantharidin] | -5.28 | -5.53
24 | CC(C)C[C@H](NC(=O)[C@H](CCc1ccccc1)NC(=O)CN1CCOCC1)C(=O)N[C@@H](Cc1ccccc1)C(=O)N[C@@H](CC(C)C)C(=O)[C@@]1(C)CO1 [Carfilzomib] | -7.93 | -7.68
25 | CCCCCCNC(=O)N1\C=C(F)/C(=O)NC1=O [Carmofur] | -6.33 | -5.48

Row | Compound | AC50 for growth inhibition (log10 M) (SB.mhdgc-1) | AC50 for growth inhibition (log10 M) (SB.msgc-1)
26 | COc1ccc2c(c[n+](C)c3c4cc5c(cc4ccc23)OCO5)c1OC [Chelerythrine chloride] | -5.08 | -5.03
27 | N=C(NCCCCCCNC(=N)NC(=N)Nc1ccc(Cl)cc1)NC(=N)Nc1ccc(Cl)cc1 [Chlorhexidine] | -5.28 | -5.43
28 | CCN(CC)CCCC(C)Nc1ccnc2cc(Cl)ccc12 (stereo not given) [Chloroquine (CQ)] | -4.98 | -4.73
29 | Oc1c(Cl)cc(Cl)c2cccnc12 [Chloroxine] | -4.93 | -4.68
30 | Nc1nc(Cl)nc2c1ncn2[C@H]1C[C@H](O)[C@@H](CO)O1 [Cladribine] | -6.58 | -5.83
31 | Nc1nc(Cl)nc2c1ncn2[C@@H]1O[C@H](CO)[C@@H](O)[C@@H]1F [Clofarabine] | -7.83 | -8.28
32 | CN(C)CCCN1c2ccccc2CCc2ccc(Cl)cc21 [Clomipramine hydrochloride] | -6.13 | -5.93
33 | O=C(c1ccc(F)c(F)c1Nc1ccc(I)cc1F)N1CC(O)([C@H]2CCCCN2)C1 [Cobimetinib] | -4.78 | -5.28
34 | COc1ccc(/C=C\c2cc(OC)c(OC)c(OC)c2)cc1O [Combretastatin A-4] | -8.68 | -5.23
35 | C[C@@H]1C[C@H]2[C@@H]3\C=C(C)/C4=C/C5=C(C[C@]4(C)[C@H]3[C@@H](O)C[C@]2(C)[C@@]1(O)C(=O)COC(C)=O)C=N[N]5C6=CC=CC=C6 [Cortivazol] | -5.53 | -5.58
36 | C[C@@H](Oc1cc(-c2cnn(C3CCNCC3)c2)cnc1N)c1c(Cl)ccc(F)c1Cl [Crizotinib] | -4.68 | -4.63
37 | CC(C)(O)/C=C\C(=O)[C@](C)(O)[C@H]1[C@H](O)C[C@]2(C)[C@@H]3CC=C4[C@@H](C=C(O)C(=O)C4(C)C)[C@]3(C)C(=O)C[C@@]12C [Cucurbitacin I] | -7.43 | -5.98
38 | OC[C@H]1O[C@@H]2[C@@H](OC\3=N\C(=N)\C=C/[N@@]23)[C@@H]1O [Cyclocytidine HCl] | -6.13 | -5.43
39 | C[C@@H]1CN[C@H]2[C@@H](C)[C@@]\3(CC[C@H]\4[C@@H]5C/C=C6/C[C@@H](O)CC[C@]6(C)[C@H]5CC4=C3C)O[C@@H]2C1 [Cyclopamine] | -4.68 | -4.73
40 | CC(=O)O[C@@]1(CC[C@H]2[C@@H]3\C=C(Cl)/C4=C/C(=O)[C@@H]5C[C@@H]5[C@]4(C)[C@H]3CC[C@]12C)C(C)=O [Cyproterone acetate] | -5.08 | -4.68
41 | O=C1\C=C/C=C2/[C@H]3CNC[C@H](C3)CN12 [Cytisine] | -6.03 | -4.83
42 | ClC/1=C(NCCN2CCOCC2)/C(=O)C3=C(C=CC=N3)C1=O [DA-3003-1] | -5.58 | -5.18
43 | CC(C)(C)c1nc(-c2cccc(N[S+](=O)([O-])c3c(F)cccc3F)c2F)c(-c2ccnc(N)n2)s1 [Dabrafenib] | -4.73 | -4.88
44 | O=C(/C=C/c1ccc(CN(CCO)CCc2c[nH]c3ccccc23)cc1)NO [Dacinostat] | -5.88 | -6.63
45 | CCOc1ccc(Cc2cc([C@@H]3O[C@H](CO)[C@@H](O)[C@H](O)[C@H]3O)ccc2Cl)cc1 [Dapagliflozin] | -5.18 | -4.98
46 | OC1=C(O)C2=C(\C=C/C(=O)O2)C=C1 [Daphnetin] | -5.78 | -4.78
47 | CN(C)[C@@H](CCOc1cccc2ccccc12)c1ccccc1 [Dapoxetine hydrochloride] | -5.48 | -4.73
48 | COc1cccc2c1C(=O)c1c(O)c3c(c(O)c1C2=O)C[C@@](O)(C(C)=O)C[C@@H]3O[C@H]1C[C@H](N)[C@H](O)[C@H](C)O1 [Daunorubicin] | -7.28 | -6.93
49 | C[C@@H]1C[C@H]2[C@@H]3\C=C(C)/C4=C/C5=C(C[C@]4(C)[C@H]3[C@@H](O)C[C@]2(C)[C@@]1(O)C(=O)CO)C=N[N]5C6=CC=CC=C6 [Deacetyl cortivazol] | -5.63 | -5.08
50 | CCC[C@H](NC(=O)/C(C#N)=C/c1cccc(Br)n1)c1ccccc1 [Degrasyn] | -5.58 | -5.43

— the supplement of paper PMC5412046
